From patent publication US20240139154A1, “Methods of Reducing Risk of Prostate Cancer Progression” (Astellas Pharma Inc., priority 2021, published 2024)
Like-named read-outs stand apart in the source and are kept apart here.

Key:
[1] = ENACT study: adverse events (safety set); type: in vivo, human
Description: The full analysis set (FAS) was the patients who were enrolled in the study and randomized to one or the other of the study arms. The safety set (SAF) was redefined in the Statistical Analysis Plan (SAP) to include only subjects who took the study drug. The FAS was 227 patients (113 in the active surveillance arm, 114 in the enzalutamide arm). The SAF had 112 subjects in the enzalutamide arm.
As expected, the incidence of Drug-Related Adverse Events (AEs) were reported in 92.0% (103/112) of the enzalutamide patients during the treatment period plus 30 days. Of the patients on active surveillance, 54.9% (62/113) experienced an adverse event from randomization until date completed 12 months on study plus 30 days. The most common Drug-Related AE seen in the enzalutamide group was fatigue (52.7%). Adverse events which occurred in ≥3.5% of enzalutamide patients were fatigue (55.4%), gynecomastia (36.6%), nipple pain (30.4%), breast tenderness (25.9%), and erectile dysfunction (17.9%). The only AE that occurred in ≥3.5% of the patients on active surveillance was hypertension (7.1%). […] Observed AE data were consistent with the known safety profile of enzalutamide.

[2] = test system: low risk or intermediate risk prostate cancer; conditions: for Hazard Ratio (95% CI), time to prostate cancer progression: enzalutamide/AS, Cox regression, HR<1 favors enzalutamide
[3] = ENACT study: adverse events (safety set); type: in vivo, human; conditions: During 1-year continued follow-up period, n = 112
[4] = test system: low risk or intermediate risk prostate cancer; assay: ENACT study: biopsy outcomes (negative biopsies, percentage of cancer-positive cores) at 1 and 2 years; type: in vivo, human
Description: This was followed by a one year follow up period, and a further continued follow-up period of at least one-year, until the last patient completed the 24-month visit.
(§1) Secondary endpoints were (1) Incidence of negative biopsies for cancer at 1 year and 2 years; (2) percentage of cancer-positive cores at 1 year and 2 years; (3) time to PSA progression; and (4) incidence of a secondary rise in serum PSA at 1 year and 2 years. “PSA progression” is defined as a ≥25% increase in serum PSA from baseline, a ≥25% increase above nadir, or an absolute increase of ≥2 ng/mL.
(§2) Secondary endpoint of incidence of negative biopsy for cancer was summarized using frequencies and percentages at one and two years by treatment groups. […] Analysis of time to PSA progression was performed using the same method used to analyze the primary endpoint. P-values were adjusted using the Bonferroni-Holm method to control type I error at 0.05 for selected secondary endpoints.

[5] = test system: serum PSA; assay: ENACT study: time to PSA progression and secondary rise in serum PSA; type: in vivo, human; conditions: for Hazard Ratio (95% CI), time to PSA progression: Cox regression
Procedure: as §1, §2

## CNC(=O)c1ccc(N2C(=S)N(c3ccc(C#N)c(C(F)(F)F)c3)C(=O)C2(C)C)cc1F [enzalutamide, Enzalutamide]
[1]; During 1-year treatment period, n = 112
  AEs leading to death, %: 0.9%
[1]; human, in vivo
  most common Drug-Related AE: fatigue: 52.7%
[1]; human, in vivo, 1 year
  Drug-related AEs leading to discontinuation of study drug, %: 7.1%
  Drug-related AEs ≥ grade 3, %: 5.4%
  Drug-related AEs, %: 88.4%
  Drug-related SAEs, %: 2.7%
  TEAEs ≥ grade 3, %: 9.8%
[1]; human, in vivo, 12 months
  Adverse Event: Alopecia, %: (9.8%)
  Adverse Event: Hypertension, %: (7.1%)
  Adverse Event: Libido Decreased, %: (8.0%)
[1]; in vivo
  tolerability of enzalutamide monotherapy: well-tolerated
[2]; FAS, Kaplan-Meier, NR = not reached
  Median Progression Free Survival / median time to pathological or therapeutic prostate cancer progression: not reached
[2]; FAS, N = 114
  No. Censored (progression free survival), %: 71.9%
[2]; FAS, N = 114, 160 mg/day
  No. of Events (prostate cancer progression), %: 28.1%
[2]; compared to patients on active surveillance
  reduction in risk of prostate cancer progression: 46%
[2]; FAS
  Hazard Ratio (95% CI), time to prostate cancer progression: 0.542 (0.330, 0.892)
[2]; FAS, listed as Enzalutamide
  Hazard Ratio (95% CI), time to prostate cancer progression: 0.54 (0.33, 0.89)
[3]
  AEs leading to death, %: 1.8%
[4]; 1 year, n = 90
  Percentage of cancer-positive cores at 1 year, LS mean change from baseline ± SE: −12.97 ± 1.99%
[4]; 1 year, n = 114
  Biopsy result at 1 year: Positive, %: (46.5) %
  Biopsy result at 1 year: Unknown, %: (18.4) %
  Incidence of negative biopsy at 1 year: Negative, %: 35.1%
[4]; 2 years, n = 53
  Percentage of cancer-positive cores at 2 years, LS mean change from baseline ± SE: −6.68 ± 2.37%
[4]; 2 years, n = 100
  Biopsy result at 2 years: Positive, %: (47.0) %
  Biopsy result at 2 years: Unknown, %: (34.0) %
  Incidence of negative biopsy at 2 years: Negative, %: 19.0%
[4]; between baseline and year two
  reduction in the mean percentage of cancer-positive cores within the enzalutamide arm: 6.7%
[4]; enzalutamide vs AS, 1 year
  Percentage of cancer-positive cores at 1 year, Difference in LS means ± SE: −10.07 ± 2.40%
[4]; enzalutamide vs AS, 2 years
  Percentage of cancer-positive cores at 2 years, Difference in LS means ± SE: −5.15 ± 3.17%
[4]; enzalutamide vs AS, exact logistic regression, 1 year
  OR (95% CI), negative biopsy at 1 year: 3.5 (1.76, 6.92)
[4]; enzalutamide vs AS, exact logistic regression, 2 years
  OR (95% CI), negative biopsy at 2 years: 1.6 (0.66, 4.00)
[4]; enzalutamide vs AS, exact logistic regression, 2 years, listed as Enzalutamide
  OR (95% CI), negative biopsy at 2 years: 1.6 (0.66, 4.00)
[4]; one year
  likelihood of a negative biopsy at one year compared to the control population: at least three times more likely
[5]; 1 year, n = 114
  Incidence of a secondary rise in serum PSA at 1 year, PSA response, %: (24.6) %
[5]; 2 years, n = 100
  Incidence of a secondary rise in serum PSA at 2 years, PSA response, %: (92.0) %
[5]; FAS, Kaplan-Meier
  Median Time to PSA Progression (95% CI): 14.82
[5]; FAS, N = 114
  No. Censored (time to PSA progression), %: 15.8%
  No. of Events (PSA progression), %: 84.2%
[5]; enzalutamide vs AS, 1 year
  OR (95% CI), secondary rise in serum PSA at 1 year: 0.1 (0.08, 0.26)
[5]; enzalutamide vs AS, 2 years
  OR (95% CI), secondary rise in serum PSA at 2 years: 1.1 (0.37, 3.53)
[5]; enzalutamide vs AS, FAS
  Hazard Ratio (95% CI), time to PSA progression: 0.714 (0.525, 0.972)
[5]; enzalutamide vs AS, FAS, listed as Enzalutamide
  Hazard Ratio (95% CI), time to PSA progression: 0.71 (0.53, 0.97)
[5]; n = 114
  Time to PSA progression, Median (95% CI): 14.8 months
[5]; observed at month 15 onwards
  PSA rebound following cessation of treatment: PSA rebound was demonstrated
[5]; versus AS
  delay of PSA progression: 6 months
